Reference: PubChem BioAssay AID2060506 (Molecular Pharmacology Branch, DTP, NCI, 2025)
Blank lines part the entries; values can stand above or below the compound they belong to.

System: 598228-144-R-J1-PDC complex spheroid viability
Assay: Anticancer human tumor 598228-144-R-J1-PDC patient-derived serous endometrial adenocarcinoma cell line growth inhibition [GQUAD]
Settings: for IC50: curve of first compound; for viability, T/C: stronger effect = lower value
Outline: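 Multi-cell-type spheroids of tumor cells with HUVEC and mesenchymal stem cells, treated with drug combinations. Concentrations descend in half-log steps from near clinical Cmax, or from 10 microM where Cmax is unknown; viability read-out.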

[1] = second compound 0.0316 µM, first compound 0.000999 µM
[2] = second compound 0.0316 µM, first compound 0.00316 µM
[3] = second compound 0.0316 µM, first compound 0.00999 µM
[4] = second compound 0.0316 µM, first compound 0.0316 µM
[5] = second compound 0.0316 µM, first compound 0.0999 µM
[6] = second compound 0.0316 µM, first compound 0.316 µM
[7] = second compound 0.1 µM, first compound 0.000999 µM
[8] = second compound 0.1 µM, first compound 0.00316 µM
[9] = second compound 0.1 µM, first compound 0.00999 µM
[10] = second compound 0.1 µM, first compound 0.0316 µM
[11] = second compound 0.1 µM, first compound 0.0999 µM
[12] = second compound 0.1 µM, first compound 0.316 µM
[13] = second compound 0.316 µM, first compound 0.000999 µM
[14] = second compound 0.316 µM, first compound 0.00316 µM
[15] = second compound 0.316 µM, first compound 0.00999 µM
[16] = second compound 0.316 µM, first compound 0.0316 µM
[17] = second compound 0.316 µM, first compound 0.0999 µM
[18] = second compound 0.316 µM, first compound 0.316 µM
[19] = second compound 1 µM, first compound 0.000999 µM
[20] = second compound 1 µM, first compound 0.00316 µM
[21] = second compound 1 µM, first compound 0.00999 µM
[22] = second compound 1 µM, first compound 0.0316 µM
[23] = second compound 1 µM, first compound 0.0999 µM
[24] = second compound 1 µM, first compound 0.316 µM
[25] = second compound 3.16 µM, first compound 0.000999 µM
[26] = second compound 3.16 µM, first compound 0.00316 µM
[27] = second compound 3.16 µM, first compound 0.00999 µM
[28] = second compound 3.16 µM, first compound 0.0316 µM
[29] = second compound 3.16 µM, first compound 0.0999 µM
[30] = second compound 3.16 µM, first compound 0.316 µM
[31] = second compound 10 µM, first compound 0.000999 µM
[32] = second compound 10 µM, first compound 0.00316 µM
[33] = second compound 10 µM, first compound 0.00999 µM
[34] = second compound 10 µM, first compound 0.0316 µM
[35] = second compound 10 µM, first compound 0.0999 µM
[36] = second compound 10 µM, first compound 0.316 µM
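Also: spheroids exposed to the agents for one week before reading.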
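For viability, T/C in this document: percent of vehicle DMSO control viability so 100% = untreated growth.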

SMILES: Cc1[nH]c2ccccc2c1CCNCc1ccc(/C=C/C(=O)NO)cc1 + CN(C)c1ccc(Nc2c3ccc(NC(=O)CCN4CCCC4)cc3nc3cc(NC(=O)CCN4CCCC4)ccc23)cc1
IC50 (second compound 0.0316 µM): 38.7 nM | IC50 (second compound 0.1 µM): 48.5 nM | IC50 (second compound 0.316 µM): 54.1 nM | IC50 (second compound 1 µM): 43 nM | IC50 (second compound 3.16 µM): 44.3 nM | IC50 (second compound 10 µM): 19.6 nM | viability, T/C [1]: 113% | viability, T/C [2]: 94.7% | viability, T/C [3]: 103% | viability, T/C [4]: 46.6% | viability, T/C [5]: 29.1% | viability, T/C [6]: 1.08% | viability, T/C [7]: 91.7% | viability, T/C [8]: 107% | viability, T/C [9]: 86% | viability, T/C [10]: 64.7% | viability, T/C [11]: 25.8% | viability, T/C [12]: 0.89% | viability, T/C [13]: 114% | viability, T/C [14]: 96.8% | viability, T/C [15]: 95.7% | viability, T/C [16]: 70.7% | viability, T/C [17]: 26.9% | viability, T/C [18]: 0.69% | viability, T/C [19]: 96.9% | viability, T/C [20]: 120% | viability, T/C [21]: 91.2% | viability, T/C [22]: 59.1% | viability, T/C [23]: 23.5% | viability, T/C [24]: 2.25% | viability, T/C [25]: 99.9% | viability, T/C [26]: 103% | viability, T/C [27]: 87.9% | viability, T/C [28]: 66.7% | viability, T/C [29]: 13.9% | viability, T/C [30]: 0.99% | viability, T/C [31]: 82.3% | viability, T/C [32]: 102% | viability, T/C [33]: 70.5% | viability, T/C [34]: 33.6% | viability, T/C [35]: 8.01% | viability, T/C [36]: 0.44%

IC50 (second compound 0.0316 µM): < 31.6 nM | IC50 (second compound 0.1 µM): < 31.6 nM | IC50 (second compound 0.316 µM): 533 nM | IC50 (second compound 1 µM): 7490 nM | IC50 (second compound 3.16 µM): < 31.6 nM | IC50 (second compound 10 µM): < 31.6 nM
SMILES: CC(=O)O[C@H]1C(=O)[C@@]2(C)[C@H]([C@H](OC(=O)c3ccccc3)[C@]3(O)C[C@H](OC(=O)[C@H](O)[C@@H](NC(=O)c4ccccc4)c4ccccc4)C(C)=C1C3(C)C)[C@]1(OC(C)=O)CO[C@@H]1C[C@@H]2O + Cc1cnc(CNC(=O)c2c(=O)c3ccc(N4CCCN(C)CC4)nc3n3c2sc2ccccc23)cn1
viability, T/C [4]: 50.2% | viability, T/C (second compound 0.0316 µM, first compound 0.1 µM): 37% | viability, T/C [6]: 45.2% | viability, T/C (second compound 0.0316 µM, first compound 1 µM): 41.3% | viability, T/C (second compound 0.0316 µM, first compound 3.16 µM): 43.7% | viability, T/C (second compound 0.0316 µM, first compound 10 µM): 43.2% | viability, T/C [10]: 48.4% | viability, T/C (second compound 0.1 µM, first compound 0.1 µM): 54.9% | viability, T/C [12]: 44.5% | viability, T/C (second compound 0.1 µM, first compound 1 µM): 49.9% | viability, T/C (second compound 0.1 µM, first compound 3.16 µM): 53.2% | viability, T/C (second compound 0.1 µM, first compound 10 µM): 51.7% | viability, T/C [16]: 49% | viability, T/C (second compound 0.316 µM, first compound 0.1 µM): 67.9% | viability, T/C [18]: 45.9% | viability, T/C (second compound 0.316 µM, first compound 1 µM): 39.1% | viability, T/C (second compound 0.316 µM, first compound 3.16 µM): 51.2% | viability, T/C (second compound 0.316 µM, first compound 10 µM): 49.6% | viability, T/C [22]: 52.1% | viability, T/C (second compound 1 µM, first compound 0.1 µM): 59.9% | viability, T/C [24]: 53.2% | viability, T/C (second compound 1 µM, first compound 1 µM): 50% | viability, T/C (second compound 1 µM, first compound 3.16 µM): 50% | viability, T/C (second compound 1 µM, first compound 10 µM): 50.9% | viability, T/C [28]: 46.9% | viability, T/C (second compound 3.16 µM, first compound 0.1 µM): 38.8% | viability, T/C [30]: 43.2% | viability, T/C (second compound 3.16 µM, first compound 1 µM): 34.5% | viability, T/C (second compound 3.16 µM, first compound 3.16 µM): 40.4% | viability, T/C (second compound 3.16 µM, first compound 10 µM): 44.5% | viability, T/C [34]: 0.38% | viability, T/C (second compound 10 µM, first compound 0.1 µM): 19.7% | viability, T/C [36]: 0.53% | viability, T/C (second compound 10 µM, first compound 1 µM): 0.57% | viability, T/C (second compound 10 µM, first compound 3.16 µM): 10.9% | viability, T/C (second compound 10 µM, first compound 10 µM): 12.1%

IC50 (second compound 0.0316 µM): 18 nM | IC50 (second compound 0.1 µM): 14.9 nM | IC50 (second compound 0.316 µM): 16.4 nM | IC50 (second compound 1 µM): 22.2 nM | IC50 (second compound 3.16 µM): 12.8 nM | IC50 (second compound 10 µM): < 0.999 nM
SMILES: CCc1c2c(nc3ccc(O)cc13)-c1cc3c(c(=O)n1C2)COC(=O)[C@]3(O)CC + Cc1cnc(CNC(=O)c2c(=O)c3ccc(N4CCCN(C)CC4)nc3n3c2sc2ccccc23)cn1
viability, T/C [1]: 62.5% | viability, T/C [2]: 68% | viability, T/C [3]: 55.6% | viability, T/C [4]: 42.6% | viability, T/C [5]: 27.3% | viability, T/C [6]: 15.3% | viability, T/C [7]: 58.7% | viability, T/C [8]: 56.1% | viability, T/C [9]: 60.4% | viability, T/C [10]: 34.1% | viability, T/C [11]: 22.6% | viability, T/C [12]: 15% | viability, T/C [13]: 69.3% | viability, T/C [14]: 76.8% | viability, T/C [15]: 45.4% | viability, T/C [16]: 47.3% | viability, T/C [17]: 21.5% | viability, T/C [18]: 2.76% | viability, T/C [19]: 68.5% | viability, T/C [20]: 63.5% | viability, T/C [21]: 64.2% | viability, T/C [22]: 43.3% | viability, T/C [23]: 19.6% | viability, T/C [24]: 0.43% | viability, T/C [25]: 70.3% | viability, T/C [26]: 63% | viability, T/C [27]: 55.8% | viability, T/C [28]: 27.9% | viability, T/C [29]: 0.43% | viability, T/C [30]: 0.31% | viability, T/C [31]: 54% | viability, T/C [32]: 39.5% | viability, T/C [33]: 44% | viability, T/C [34]: 1.02% | viability, T/C [35]: 0.4% | viability, T/C [36]: 0.35%
